Test results taken from ChEMBL document CHEMBL4387766, “Synthesis and biological evaluation of PSMA-targeting paclitaxel conjugates” (Bioorg Med Chem Lett, 2019).
pIC50: −log10 of the molar value.

Tests used:
[1] = Selectivity ratio of CC50 for human PSMA-deficient PC3 cells to CC50 for PSMA-positive human 22Rv1 cells; assay type: functional
[2] = test system: PC-3; experiment: Cytotoxicity against PSMA-deficient human PC3 cells assessed as reduction in cell viability measured after 72 hrs by MTT assay; assay type: functional; conditions: PC-3, 72 h
[3] = Cytotoxicity against human VA13 cells assessed as reduction in cell viability measured after 72 hrs by MTT assay; assay type: cell-based; conditions: WI-38 VA13 cells
[4] = Selectivity ratio of CC50 for human PSMA-deficient PC3 cells to CC50 for PSMA-positive human LNCAP cells; assay type: functional
[5] = Cytotoxicity against human A549 cells assessed as reduction in cell viability measured after 72 hrs by MTT assay; assay type: cell-based
[6] = test system: CWR22R; experiment: Cytotoxicity against PSMA-positive human 22Rv1 cells assessed as reduction in cell viability measured after 72 hrs by MTT assay; assay type: functional; conditions: 22Rv1, 72 h
[7] = Selectivity ratio of CC50 for human VA13 cells to CC50 for PSMA-positive human 22Rv1 cells
[8] = Cytotoxicity against HEK293T cells assessed as reduction in cell viability measured after 72 hrs by MTT assay; assay type: cell-based, HEK-293T; conditions: human
[9] = Selectivity ratio of CC50 for human VA13 cells to CC50 for PSMA-positive human LNCAP cells
[10] = test system: LNCaP; experiment: Cytotoxicity against PSMA-positive human LNCAP cells assessed as reduction in cell viability measured after 72 hrs by MTT assay; assay type: functional
[11] = Cytotoxicity against human MCF7 cells assessed as reduction in cell viability measured after 72 hrs by MTT assay; assay type: cell-based
[12] = molecular target: Glutamate carboxypeptidase 2 (Homo sapiens, UniProt Q04609); experiment: Inhibition of PSMA in human LNCAP cells using NAAG as substrate measured after 2 hrs by amplex red reagent based fluorescence assay; assay type: cell-based
[13] = test system: CWR22R; experiment: Antitumor activity against human 22Rv1 cells xenografted in nu/nu mouse assessed as tumor growth inhibition at 6 mg/kg, iv administered 3 times per week relative to control; assay type: functional; conditions: 22Rv1, iv, read-out: TGI

Chain of Glutamate carboxypeptidase 2 (Q04609 whole entry): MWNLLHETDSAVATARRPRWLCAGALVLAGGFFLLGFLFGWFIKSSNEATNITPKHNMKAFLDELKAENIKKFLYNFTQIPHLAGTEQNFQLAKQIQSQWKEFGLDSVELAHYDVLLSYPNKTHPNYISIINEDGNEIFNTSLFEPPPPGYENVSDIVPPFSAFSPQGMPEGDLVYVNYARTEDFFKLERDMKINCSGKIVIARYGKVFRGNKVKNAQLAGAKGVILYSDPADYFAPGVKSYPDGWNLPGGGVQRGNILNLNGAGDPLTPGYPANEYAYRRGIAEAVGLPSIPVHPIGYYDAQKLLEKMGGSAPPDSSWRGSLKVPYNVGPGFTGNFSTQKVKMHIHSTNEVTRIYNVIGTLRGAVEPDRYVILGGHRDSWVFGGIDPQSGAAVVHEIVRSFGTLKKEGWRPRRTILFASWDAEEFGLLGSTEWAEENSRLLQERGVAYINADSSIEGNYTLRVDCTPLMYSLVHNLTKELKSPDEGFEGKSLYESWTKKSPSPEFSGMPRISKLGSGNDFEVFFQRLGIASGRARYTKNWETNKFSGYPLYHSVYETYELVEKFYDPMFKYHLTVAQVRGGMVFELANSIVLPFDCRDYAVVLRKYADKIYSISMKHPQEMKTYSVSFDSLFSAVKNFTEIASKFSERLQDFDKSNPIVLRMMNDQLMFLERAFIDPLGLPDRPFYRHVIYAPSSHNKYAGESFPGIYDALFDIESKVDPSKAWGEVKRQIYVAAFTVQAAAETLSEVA

Compound | Selectivity ratio [1] | CC50 [2] [nM] | CC50 at 72 h [3] [nM] | Selectivity ratio [4] | CC50 at 72 h [5] [nM] | CC50 [6] [nM] | Selectivity ratio [7] | CC50 at 72 h [8] [nM] | Selectivity ratio [9] | CC50 [10] [nM] | CC50 at 72 h [11] [nM] | pIC50 [12] | inhibition in vivo at 6 mg/kg [13] [%]
CC(=O)O[C@H]1C(=O)[C@@]2(C)[C@H]([C@H](OC(=O)c3ccccc3)[C@]3(O)C[C@H](OC(=O)[C@H](OC(=O)CCCc4cn(CCCCCCCCCCC(=O)N(CCCC[C@H](NC(=O)N[C@@H](CCC(=O)O)C(=O)O)C(=O)O)Cc5ccc(Br)cc5)nn4)[C@@H](NC(=O)c4ccccc4)c4ccccc4)C(C)=C1C3(C)C)[C@]1(OC(C)=O)CO[C@@H]1C[C@@H]2O | 0.7 | 25 | < 30 | 0.18 | < 30 | 53 | 1.46 | < 30 | 0.38 | 67 | 34 |  | 
[N-]=[N+]=NCCCCCC(=O)N(CCCC[C@H](NC(=O)N[C@@H](CCC(=O)O)C(=O)O)C(=O)O)Cc1ccc(Cl)cc1 |  |  | > 100000 |  |  |  |  |  |  |  |  | 6.96 | 
[N-]=[N+]=NCCCCCC(=O)N(CCCC[C@H](NC(=O)N[C@@H](CCC(=O)O)C(=O)O)C(=O)O)Cc1ccc(O)cc1 |  |  | 50200 |  |  |  |  |  |  |  |  | 6.85 | 
[N-]=[N+]=NCCCCCC(=O)N(CCCC[C@H](NC(=O)N[C@@H](CCC(=O)O)C(=O)O)C(=O)O)Cc1ccc(Br)cc1 |  |  |  |  |  |  |  |  |  |  |  | 6.77 | 
CC(=O)O[C@H]1C(=O)[C@@]2(C)[C@H]([C@H](OC(=O)c3ccccc3)[C@]3(O)C[C@H](OC(=O)[C@H](OC(=O)CCCc4cn(CCCCCCCCCCC(=O)N(CCCC[C@H](NC(=O)N[C@@H](CCC(=O)O)C(=O)O)C(=O)O)Cc5ccc(Cl)cc5)nn4)[C@@H](NC(=O)c4ccccc4)c4ccccc4)C(C)=C1C3(C)C)[C@]1(OC(C)=O)CO[C@@H]1C[C@@H]2O | 0.24 | 20 | 24 | 0.22 | < 30 | 120 | 0.47 | 23 | 0.43 | 44 | 56.5 |  | 
NCCCC[C@H](NC(=O)N[C@@H](CCC(=O)O)C(=O)O)C(=O)O |  |  | > 100000 |  |  |  |  |  |  |  |  | 5.83 | 
CC(=O)O[C@H]1C(=O)[C@@]2(C)[C@H]([C@H](OC(=O)c3ccccc3)[C@]3(O)C[C@H](OC(=O)[C@H](OC(=O)CCCc4cn(CCCCCCCCCCC(=O)NCCCC[C@H](NC(=O)N[C@@H](CCC(=O)O)C(=O)O)C(=O)O)nn4)[C@@H](NC(=O)c4ccccc4)c4ccccc4)C(C)=C1C3(C)C)[C@]1(OC(C)=O)CO[C@@H]1C[C@@H]2O | 1.2 | 1230 | 66 | 0.99 | 20 | 1000 | 0.85 | 294 | 0.7 | 835 | 189 |  | 
CC(=O)O[C@H]1C(=O)[C@@]2(C)[C@H]([C@H](OC(=O)c3ccccc3)[C@]3(O)C[C@H](OC(=O)[C@H](OC(=O)CCCc4cn(CCCCCC(=O)N(CCCC[C@H](NC(=O)N[C@@H](CCC(=O)O)C(=O)O)C(=O)O)Cc5ccc(O)cc5)nn4)[C@@H](NC(=O)c4ccccc4)c4ccccc4)C(C)=C1C3(C)C)[C@]1(OC(C)=O)CO[C@@H]1C[C@@H]2O | 2.19 | 90 | 65 | 1.04 | 20 | 61 | 0.78 | 23 | 0.37 | 43 | 169 |  | 
CC(=O)O[C@H]1C(=O)[C@@]2(C)[C@H]([C@H](OC(=O)c3ccccc3)[C@]3(O)C[C@H](OC(=O)[C@H](OC(=O)CCCc4cn(CCCCCCCCCCNC(=O)NCCCC[C@H](NC(=O)N[C@@H](CCC(=O)O)C(=O)O)C(=O)O)nn4)[C@@H](NC(=O)c4ccccc4)c4ccccc4)C(C)=C1C3(C)C)[C@]1(OC(C)=O)CO[C@@H]1C[C@@H]2O | 0.83 | 75 | 101 | 0.63 | 5 | 132 | 0.93 | 42 | 0.71 | 60 | 162 |  | 
CC(=O)O[C@H]1C(=O)[C@@]2(C)[C@H]([C@H](OC(=O)c3ccccc3)[C@]3(O)C[C@H](OC(=O)[C@H](OC(=O)CCCc4cn(CCCCCNC(=O)NCCCC[C@H](NC(=O)N[C@@H](CCC(=O)O)C(=O)O)C(=O)O)nn4)[C@@H](NC(=O)c4ccccc4)c4ccccc4)C(C)=C1C3(C)C)[C@]1(OC(C)=O)CO[C@@H]1C[C@@H]2O | 1.09 | 25 | 37 | 0.99 |  | 34 | 0.61 | 14 | 0.56 | 13 | 56 |  | 
CC(=O)O[C@H]1C(=O)[C@@]2(C)[C@H]([C@H](OC(=O)c3ccccc3)[C@]3(O)C[C@H](OC(=O)[C@H](O)[C@@H](NC(=O)c4ccccc4)c4ccccc4)C(C)=C1C3(C)C)[C@]1(OC(C)=O)CO[C@@H]1C[C@@H]2O [PACLITAXEL] | 1 | 2.7 | < 20 | 1 | < 20 | 3.9 | 1 | < 20 | 1 | 1.4 | < 20 |  | 30
CC(=O)O[C@H]1C(=O)[C@@]2(C)[C@H]([C@H](OC(=O)c3ccccc3)[C@]3(O)C[C@H](OC(=O)[C@H](OC(=O)CCCc4cn(CCCCCC(=O)N(CCCC[C@H](NC(=O)N[C@@H](CCC(=O)O)C(=O)O)C(=O)O)Cc5ccc(F)cc5)nn4)[C@@H](NC(=O)c4ccccc4)c4ccccc4)C(C)=C1C3(C)C)[C@]1(OC(C)=O)CO[C@@H]1C[C@@H]2O | 0.82 | 740 | < 30 | 1.01 | < 30 | 1320 | 0.48 | < 30 | 0.59 | 365 | 49 |  | 
CC(=O)O[C@H]1C(=O)[C@@]2(C)[C@H]([C@H](OC(=O)c3ccccc3)[C@]3(O)C[C@H](OC(=O)[C@H](OC(=O)CCCc4cn(CCCCCC(=O)N(CCCC[C@H](NC(=O)N[C@@H](CCC(=O)O)C(=O)O)C(=O)O)Cc5ccc(Br)cc5)nn4)[C@@H](NC(=O)c4ccccc4)c4ccccc4)C(C)=C1C3(C)C)[C@]1(OC(C)=O)CO[C@@H]1C[C@@H]2O | 1.15 | 876 | 45 | 0.85 | < 30 | 1130 | 0.45 | 38 | 0.33 | 510 | 94 |  | 
CC(=O)O[C@H]1C(=O)[C@@]2(C)[C@H]([C@H](OC(=O)c3ccccc3)[C@]3(O)C[C@H](OC(=O)[C@H](OC(=O)CCCc4cn(CCCCCC(=O)N(CCCC[C@H](NC(=O)N[C@@H](CCC(=O)O)C(=O)O)C(=O)O)Cc5ccc(Cl)cc5)nn4)[C@@H](NC(=O)c4ccccc4)c4ccccc4)C(C)=C1C3(C)C)[C@]1(OC(C)=O)CO[C@@H]1C[C@@H]2O | 0.91 | 1030 | 48 | 0.34 | < 30 | 1670 | 0.7 | 40 | 0.26 | 1480 | 78 |  | 
CC(=O)O[C@H]1C(=O)[C@@]2(C)[C@H]([C@H](OC(=O)c3ccccc3)[C@]3(O)C[C@H](OC(=O)[C@H](OC(=O)CCCc4cn(CCCCCCCCCCC(=O)N(CCCC[C@H](NC(=O)N[C@@H](CCC(=O)O)C(=O)O)C(=O)O)Cc5ccc(F)cc5)nn4)[C@@H](NC(=O)c4ccccc4)c4ccccc4)C(C)=C1C3(C)C)[C@]1(OC(C)=O)CO[C@@H]1C[C@@H]2O | 0.62 | 479 | 27 | 0.51 | < 30 | 1140 | 0.65 | 41 | 0.54 | 467 | 66 |  | 
CC(=O)O[C@H]1C(=O)[C@]2(C)[C@@H](OC(=O)CCCc3cn(CCCCCCCCCCC(=O)NCCCC[C@H](NC(=O)N[C@@H](CCC(=O)O)C(=O)O)C(=O)O)nn3)C[C@H]3OC[C@@]3(OC(C)=O)[C@H]2[C@H](OC(=O)c2ccccc2)[C@]2(O)C[C@H](OC(=O)[C@H](O)[C@@H](NC(=O)c3ccccc3)c3ccccc3)C(C)=C1C2(C)C | 1.61 | 2920 | 1160 | 1.43 | 632 | 2640 | 0.59 | 730 | 0.53 | 1010 | 1210 |  | 
